Results reported in ChEMBL document CHEMBL4732064, “Structure-activity relationship studies of phenothiazine derivatives as a new class of ferroptosis inhibitors together with the therapeutic effect in an ischemic stroke model” (Eur J Med Chem, 2021).
Active and inactive are the calls of the source. No cut-off for these calls is given here.

How the values were obtained:
Assay type in all cases: functional, cell-based
HT-1080 [1] = experiment: Inhibition of erastin-induced ferroptosis in human HT-1080 cells assessed as cell viability incubated for 48 hrs by MTT assay; conditions: HT-1080, 48 h
HT-29 = experiment: Protection against TNFalpha/Smac-mimetic/Z-VAD-FMK-induced necroptosis in human HT-29 cells assessed as cell viability at 10 uM
HT-1080 [2] = experiment: Inhibition of H2O2-induced oxidative cell death in human HT-1080 cells at 10 uM incubated for 24 hrs
HT-1080 [3] = experiment: Inhibition of rotenone-induced oxidative cell death in human HT-1080 cells at 10 uM incubated for 24 hrs
THP-1 = experiment: Protection against nigericin-induced pyroptosis in human THP-1 cells assessed as cell viability at 10 uM

Row | SMILES | EC50 (HT-1080 [1]) [nM] | also measured
1 | CCN(CC)CC(O)CN1c2ccccc2Sc2ccccc21 (configuration not stated) | 4420 | 
2 | CC(c1cccc(N2CCN(C)CC2)c1)c1ccc2c(c1)Nc1ccccc1S2 (configuration not stated) | 9 | 
3 | CC(c1ccc(C(F)(F)F)c(Cl)c1)c1ccc2c(c1)Nc1ccccc1S2 (configuration not stated) | 17 | 
4 | COCCNC(=O)N1c2ccccc2Sc2ccccc21 | > 10000 | 
5 | CC(c1ccc2c(c1)Nc1ccccc1S2)S(=O)(=O)N1CCN(C)CC1 (configuration not stated) | 34 | 
6 | CCOc1ccccc1C(=O)N/N=C(\C)c1ccc2c(c1)Nc1ccccc1S2 | 18 | 
7 | C/C(=N\NC(=O)c1ccccn1)c1ccc2c(c1)Nc1ccccc1S2 | 65 | 
8 | CC(c1cccc(C#N)c1)c1ccc2c(c1)Nc1ccccc1S2 (configuration not stated) | 15 | 
9 | CS(=O)(=O)c1ccc2c(c1)Nc1ccccc1S2 | 195 | 
10 | Cc1cc(Cl)cc(C(C)c2ccc3c(c2)Nc2ccccc2S3)c1 (configuration not stated) | 24 | 
11 | Cc1cccc(C(C)c2ccc3c(c2)Nc2ccccc2S3)c1 (configuration not stated) | 5 | 
12 | O=C(CCN1c2ccccc2Sc2ccccc21)N1CCN(CCO)CC1 | > 10000 | 
13 | CC(c1cccc(N2CCOCC2)c1)c1ccc2c(c1)Nc1ccccc1S2 (configuration not stated) | 14 | 
14 | c1ccc(Cc2ccc3c(c2)Nc2ccccc2S3)cc1 | 17 | 
15 | CC(c1ccc(OCc2ccccc2)cc1)c1ccc2c(c1)Nc1ccccc1S2 (configuration not stated) | 14 | 
16 | CC(=O)c1cccc(NC(=O)CCN2c3ccccc3Sc3ccccc32)c1 | 4300 | 
17 | CC(c1cccc(O)c1)c1ccc2c(c1)Nc1ccccc1S2 (configuration not stated) | 5 | 
18 | CC(c1cccc(F)c1)c1ccc2c(c1)Nc1ccccc1S2 (configuration not stated) | 6 | 
19 | CCOC(=O)c1cc(F)cc(C(C)c2ccc3c(c2)Nc2ccccc2S3)c1 (configuration not stated) | 30 | 
20 | Cc1ccc(C)c(NC(=O)CN(C)C(=O)CCN2c3ccccc3Sc3ccccc32)c1 | 5240 | 
21 | CCCOc1ccc(C(C)c2ccc3c(c2)Nc2ccccc2S3)cc1 (configuration not stated) | 62 | 
22 | CN1C(=O)C(Cc2c[nH]c3ccccc23)NC1=S (configuration not stated) |  | Activity (HT-29): Active
23 | N#Cc1ccc2c(c1)Nc1ccccc1S2 | 209 | 
24 | CC(c1ccc2c(c1)Nc1ccccc1S2)S(=O)(=O)N1CCN(S(C)(=O)=O)CC1 (configuration not stated) | 35 | 
25 | CC(c1cccc(Cl)c1)c1ccc2c(c1)Nc1ccccc1S2 (configuration not stated) | 5 | 

Row | SMILES | EC50 (HT-1080 [1]) [nM] | also measured
26 | CC(c1ccc(F)cc1)c1ccc2c(c1)Nc1ccccc1S2 (configuration not stated) | 6 | 
27 | CC(c1ccc(C(C)(C)C)cc1)c1ccc2c(c1)Nc1ccccc1S2 (configuration not stated) | 73 | 
28 | CCOc1cccc(C(C)c2ccc3c(c2)Nc2ccccc2S3)c1 (configuration not stated) | 14 | 
29 | CCCN1c2ccccc2Sc2ccccc21 | > 10000 | 
30 | CC(=O)N1c2ccccc2Sc2ccccc21 | 1150 | 
31 | FC(F)(F)c1ccc2c(c1)Nc1ccccc1S2 | 47 | 
32 | COc1cc(C(C)c2ccc3c(c2)Nc2ccccc2S3)ccc1C (configuration not stated) | 22 | 
33 | CCCCC(CC)CN1c2ccccc2Sc2ccccc21 (configuration not stated) | > 10000 | 
34 | CC(=O)c1ccccc1NC(=O)COC(=O)CCN1c2ccccc2Sc2ccccc21 | > 10000 | 
35 | C/C(=N\NC(=O)c1cccnc1)c1ccc2c(c1)Nc1ccccc1S2 | 71 | 
36 | O=Cc1ccc2c(c1)Nc1ccccc1S2 | 142 | 
37 | CCOC(=O)c1ccc(NC2CCCCC2)c(N)c1 | 88 | Activity (HT-1080 [2]): inactive; Activity (HT-29): inactive; inhibition (HT-1080 [3]): inactive
38 | CCOc1ccc(C(C)c2ccc3c(c2)Nc2ccccc2S3)cc1 (configuration not stated) | 17 | 
39 | CC(OC(=O)CCN1c2ccccc2Sc2ccccc21)c1ccc(F)cc1 (configuration not stated) | > 10000 | 
40 | Cc1cc(C(C)c2ccc3c(c2)Nc2ccccc2S3)ccc1OCc1ccccc1 (configuration not stated) | 71 | 
41 | CC(CN1c2ccccc2Sc2ccccc21)N(C)C (configuration not stated) [PROMETHAZINE] | 264 | 
42 | CC(C)Oc1cccc(C(C)c2ccc3c(c2)Nc2ccccc2S3)c1 (configuration not stated) | 15 | 
43 | Cc1cc(C)cc(C(C)c2ccc3c(c2)Nc2ccccc2S3)c1 (configuration not stated) | 21 | 
44 | Cc1ccc(SCC(=O)N2c3ccccc3Sc3ccccc32)cc1 | > 10000 | 
45 | Cc1cnc(SCC(=O)N2c3ccccc3Sc3ccccc32)nc1 | > 10000 | 
46 | CC(=O)c1ccc2c(c1)Nc1ccccc1S2 | 38 | 
47 | CC(c1cccc(NC(=O)OC(C)(C)C)c1)c1ccc2c(c1)Nc1ccccc1S2 (configuration not stated) | 52 | 
48 | CC(c1ccc2c(c1)Nc1ccccc1S2)S(=O)(=O)N1CCN(c2ccc(F)cc2F)CC1 (configuration not stated) | 80 | 
49 | CC(OC(=O)c1ccccc1)c1ccc2c(c1)Nc1ccccc1S2 (configuration not stated) | 13 | 
50 | COc1cc(OC)cc(C(C)c2ccc3c(c2)Nc2ccccc2S3)c1 (configuration not stated) | 13 | 

Row | SMILES | EC50 (HT-1080 [1]) [nM] | also measured
51 | CC(C)Cc1ccc(C(C)c2ccc3c(c2)Nc2ccccc2S3)cc1 (configuration not stated) | 9 | 
52 | O=C(CN1CCCC1)N1c2ccccc2Sc2ccccc21 | 1130 | 
53 | CCc1cccc(C(C)c2ccc3c(c2)Nc2ccccc2S3)c1 (configuration not stated) | 18 | 
54 | CC(NC(=O)CCN1c2ccccc2Sc2ccccc21)C1CC1 (configuration not stated) | 4040 | 
55 | CC(c1ccc(Cl)c(Cl)c1)c1ccc2c(c1)Nc1ccccc1S2 (configuration not stated) | 16 | 
56 | CC(=NNC(=O)c1ccco1)c1ccc2c(c1)Nc1ccccc1S2 | 17 | 
57 | CC(C)c1cccc(C(C)c2ccc3c(c2)Nc2ccccc2S3)c1 (configuration not stated) | 12 | 
58 | COc1ccc(OCC(=O)N2c3ccccc3Sc3ccccc32)cc1 | 145 | 
59 | C/C(=N\NS(=O)(=O)c1ccc(C)cc1)c1ccc2c(c1)Nc1ccccc1S2 | 28 | 
60 | COc1ccccc1C(=O)N1c2ccccc2Sc2ccccc21 | > 10000 | 
61 | CC(C)N1CCN(S(=O)(=O)C(C)c2ccc3c(c2)Nc2ccccc2S3)CC1 (configuration not stated) | 25 | 
62 | CC(c1cccc(OCc2ccccc2)c1)c1ccc2c(c1)Nc1ccccc1S2 (configuration not stated) | 25 | 
63 | CC(C)c1ccc(C(C)c2ccc3c(c2)Nc2ccccc2S3)cc1 (configuration not stated) | 6 | 
64 | CC(C)(O)c1coc(S(=O)(=O)NC(=O)Nc2c3c(cc4c2CCC4)CCC3)c1 |  | Activity (THP-1): Active
65 | CC(c1ccc(N2CCOCC2)cc1)c1ccc2c(c1)Nc1ccccc1S2 (configuration not stated) | 13 | 
66 | CC(c1ccc(Cl)cc1)c1ccc2c(c1)Nc1ccccc1S2 (configuration not stated) | 16 | 
67 | COc1ccc(C(C)c2ccc3c(c2)Nc2ccccc2S3)cc1OC (configuration not stated) | 7 | 
68 | COc1cc(C(C)c2ccc3c(c2)Nc2ccccc2S3)ccc1Cl (configuration not stated) | 22 | 
69 | CC(c1cccc(C(=O)OC(C)(C)C)c1)c1ccc2c(c1)Nc1ccccc1S2 (configuration not stated) | 17 | 
70 | CC(c1cc(F)cc(OCc2ccccc2)c1)c1ccc2c(c1)Nc1ccccc1S2 (configuration not stated) | 60 | 
71 | CCc1ccc(C(C)c2ccc3c(c2)Nc2ccccc2S3)cc1 (configuration not stated) | 20 | 
72 | CN1c2ccccc2Sc2ccccc21 | > 10000 | 
73 | OCc1ccc2c(c1)Nc1ccccc1S2 | 63 | 
74 | CC(c1ccc(C#N)cc1)c1ccc2c(c1)Nc1ccccc1S2 (configuration not stated) | 6 | 
75 | CC(c1ccc(NC(=O)OC(C)(C)C)cc1)c1ccc2c(c1)Nc1ccccc1S2 (configuration not stated) | 39 | 

Row | SMILES | EC50 (HT-1080 [1]) [nM] | also measured
76 | COc1ccc(C(C)c2ccc3c(c2)Nc2ccccc2S3)cc1C (configuration not stated) | 19 | 
77 | CC(c1ccc(F)c(Cl)c1)c1ccc2c(c1)Nc1ccccc1S2 (configuration not stated) | 5 | 
78 | COc1ccc2c(c1)Nc1ccccc1S2 | 1750 | 
79 | CC(OC(=O)CCCN1C(=O)c2ccccc2C1=O)C(=O)N1c2ccccc2Sc2ccccc21 (configuration not stated) | 439 | 
80 | CSc1ccc2c(c1)Nc1ccccc1S2 | 64 | 
81 | CC(c1ccccc1)c1ccc2c(c1)Nc1ccccc1S2 (configuration not stated) | 4 | 
82 | CC(c1ccc2c(c1)Nc1ccccc1S2)S(=O)(=O)N1CCOCC1 (configuration not stated) | 67 | 
83 | CCc1ccc2c(c1)Nc1ccccc1S2 | 30 | 
84 | CCCCc1ccc(C(C)c2ccc3c(c2)Nc2ccccc2S3)cc1 (configuration not stated) | 64 | 
85 | CC1CCN(CC(=O)N2c3ccccc3Sc3ccccc32)CC1 | 2760 | 
86 | C/C(=N\NC(=O)c1ccccc1C)c1ccc2c(c1)Nc1ccccc1S2 | 5 | 
87 | O=C(c1ccncc1)N1c2ccccc2Sc2ccccc21 | 4470 | 
88 | CC(c1ccc2c(c1)Nc1ccccc1S2)S(=O)(=O)N1CCN(c2ccc(F)cc2)CC1 (configuration not stated) | 80 | 
89 | CCN1CCN(S(=O)(=O)C(C)c2ccc3c(c2)Nc2ccccc2S3)CC1 (configuration not stated) | 32 | 
90 | c1ccc2c(c1)Nc1ccccc1S2 [PHENOTHIAZINE] | 49 | 
91 | COc1cccc(N2CCN(S(=O)(=O)C(C)c3ccc4c(c3)Nc3ccccc3S4)CC2)c1 (configuration not stated) | 57 | 
92 | CC(c1ccc2c(c1)Nc1ccccc1S2)c1ccc(F)c(OCc2ccccc2)c1 (configuration not stated) | 35 | 
93 | CC(C)Oc1ccc(C(C)c2ccc3c(c2)Nc2ccccc2S3)cc1 (configuration not stated) | 17 | 
94 | CC(c1ccc2c(c1)Nc1ccccc1S2)S(=O)(=O)N1CCSCC1 (configuration not stated) | 78 | 
95 | CC(c1cc(Cl)cc(Cl)c1)c1ccc2c(c1)Nc1ccccc1S2 (configuration not stated) | 17 | 
96 | CC(c1ccc(Cl)c(F)c1)c1ccc2c(c1)Nc1ccccc1S2 (configuration not stated) | 19 | 
97 | COc1cc(C(C)c2ccc3c(c2)Nc2ccccc2S3)ccc1F (configuration not stated) | 25 | 
98 | CC(c1ccc(C(F)(F)F)cc1)c1ccc2c(c1)Nc1ccccc1S2 (configuration not stated) | 6 | 
99 | COC(=O)c1ccc(C(C)c2ccc3c(c2)Nc2ccccc2S3)cc1Cl (configuration not stated) | 21 | 
